{
  "source": "PubChem BioAssay AID2060895",
  "about": "(Molecular Pharmacology Branch, DTP, NCI, 2025);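 for viability, T/C: spheroids exposed to agents for seven days before readout; 100% = DMSO vehicle control wells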",
  "system": "PDC 899932-113-R3-J6 complex spheroid viability",
  "experiment": "Anticancer human tumor 899932-113-R3-J6-PDC patient-derived melanoma cell line growth inhibition [RAS]",
  "details": "for IC50: curve of first compound; for viability, T/C: stronger effect = lower value",
  "outline": "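Agents were tested in combination matrices in half-log decrements from a top concentration at or near clinical Cmax (10 microM if undetermined). Targets were multi-cell spheroids of tumour lines plus HUVEC and MSC stromal cells.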",
  "key": {"[1]": {"details": "second compound 0.000949 µM, first compound 0.0316 µM"}, "[2]": {"details": "second compound 0.000949 µM, first compound 0.1 µM"}, "[3]": {"details": "second compound 0.000949 µM, first compound 0.316 µM"}, "[4]": {"details": "second compound 0.000949 µM, first compound 1 µM"}, "[5]": {"details": "second compound 0.000949 µM, first compound 3.16 µM"}, "[6]": {"details": "second compound 0.000949 µM, first compound 10 µM"}, "[7]": {"details": "second compound 0.003 µM, first compound 0.0316 µM"}, "[8]": {"details": "second compound 0.003 µM, first compound 0.1 µM"}, "[9]": {"details": "second compound 0.003 µM, first compound 0.316 µM"}, "[10]": {"details": "second compound 0.003 µM, first compound 1 µM"}, "[11]": {"details": "second compound 0.003 µM, first compound 3.16 µM"}, "[12]": {"details": "second compound 0.003 µM, first compound 10 µM"}, "[13]": {"details": "second compound 0.00949 µM, first compound 0.0316 µM"}, "[14]": {"details": "second compound 0.00949 µM, first compound 0.1 µM"}, "[15]": {"details": "second compound 0.00949 µM, first compound 0.316 µM"}, "[16]": {"details": "second compound 0.00949 µM, first compound 1 µM"}, "[17]": {"details": "second compound 0.00949 µM, first compound 3.16 µM"}, "[18]": {"details": "second compound 0.00949 µM, first compound 10 µM"}, "[19]": {"details": "second compound 0.03 µM, first compound 0.0316 µM"}, "[20]": {"details": "second compound 0.03 µM, first compound 0.1 µM"}, "[21]": {"details": "second compound 0.03 µM, first compound 0.316 µM"}, "[22]": {"details": "second compound 0.03 µM, first compound 1 µM"}, "[23]": {"details": "second compound 0.03 µM, first compound 3.16 µM"}, "[24]": {"details": "second compound 0.03 µM, first compound 10 µM"}, "[25]": {"details": "second compound 0.0949 µM, first compound 0.0316 µM"}, "[26]": {"details": "second compound 0.0949 µM, first compound 0.1 µM"}, "[27]": {"details": "second compound 0.0949 µM, first compound 0.316 µM"}, "[28]": {"details": "second compound 0.0949 µM, first compound 1 µM"}, "[29]": {"details": "second compound 0.0949 µM, first compound 3.16 µM"}, "[30]": {"details": "second compound 0.0949 µM, first compound 10 µM"}, "[31]": {"details": "second compound 0.3 µM, first compound 0.0316 µM"}, "[32]": {"details": "second compound 0.3 µM, first compound 0.1 µM"}, "[33]": {"details": "second compound 0.3 µM, first compound 0.316 µM"}, "[34]": {"details": "second compound 0.3 µM, first compound 1 µM"}, "[35]": {"details": "second compound 0.3 µM, first compound 3.16 µM"}, "[36]": {"details": "second compound 0.3 µM, first compound 10 µM"}},
  "data": [
    {"smiles": "CC1(O)CCCC1n1c(=O)c(C(F)F)cc2cnc(NC3CCN(S(C)(=O)=O)CC3)nc21", "note": "(centres undefined) + CCn1c(-c2cccnc2C(C)OC)c2c3cc(ccc31)N1CCOC(CC(NC(=O)C(C(C)C)N(C)C(=O)C3(F)CCN(C(=O)C#CC(C)(C)N(C)C)CC3)C(=O)N3CCCC(N3)C(=O)OCC(C)(C)C2)C1", "values": [
      {"measurement": "IC50", "setting": "second compound 0.000949 µM", "result": 3730, "unit": "nM"},
      {"measurement": "IC50", "setting": "second compound 0.003 µM", "result": 3710, "unit": "nM"},
      {"measurement": "IC50", "setting": "second compound 0.00949 µM", "result": 2840, "unit": "nM"},
      {"measurement": "IC50", "setting": "second compound 0.03 µM", "result": 3470, "unit": "nM"},
      {"measurement": "IC50", "setting": "second compound 0.0949 µM", "result": 2710, "unit": "nM"},
      {"measurement": "IC50", "setting": "second compound 0.3 µM", "result": 3410, "unit": "nM"},
      {"measurement": "viability, T/C", "setting": "[1]", "result": 98.1, "unit": "%"},
      {"measurement": "viability, T/C", "setting": "[2]", "result": 86.7, "unit": "%"},
      {"measurement": "viability, T/C", "setting": "[3]", "result": 72.3, "unit": "%"},
      {"measurement": "viability, T/C", "setting": "[4]", "result": 68.8, "unit": "%"},
      {"measurement": "viability, T/C", "setting": "[5]", "result": 56.8, "unit": "%"},
      {"measurement": "viability, T/C", "setting": "[6]", "result": 33.6, "unit": "%"},
      {"measurement": "viability, T/C", "setting": "[7]", "result": 99.8, "unit": "%"},
      {"measurement": "viability, T/C", "setting": "[8]", "result": 83, "unit": "%"},
      {"measurement": "viability, T/C", "setting": "[9]", "result": 71.6, "unit": "%"},
      {"measurement": "viability, T/C", "setting": "[10]", "result": 69.7, "unit": "%"},
      {"measurement": "viability, T/C", "setting": "[11]", "result": 59, "unit": "%"},
      {"measurement": "viability, T/C", "setting": "[12]", "result": 32.3, "unit": "%"},
      {"measurement": "viability, T/C", "setting": "[13]", "result": 107, "unit": "%"},
      {"measurement": "viability, T/C", "setting": "[14]", "result": 84.5, "unit": "%"},
      {"measurement": "viability, T/C", "setting": "[15]", "result": 69.7, "unit": "%"},
      {"measurement": "viability, T/C", "setting": "[16]", "result": 63.4, "unit": "%"},
      {"measurement": "viability, T/C", "setting": "[17]", "result": 55.9, "unit": "%"},
      {"measurement": "viability, T/C", "setting": "[18]", "result": 32.9, "unit": "%"},
      {"measurement": "viability, T/C", "setting": "[19]", "result": 110, "unit": "%"},
      {"measurement": "viability, T/C", "setting": "[20]", "result": 79.9, "unit": "%"},
      {"measurement": "viability, T/C", "setting": "[21]", "result": 69.6, "unit": "%"},
      {"measurement": "viability, T/C", "setting": "[22]", "result": 70.1, "unit": "%"},
      {"measurement": "viability, T/C", "setting": "[23]", "result": 59.7, "unit": "%"},
      {"measurement": "viability, T/C", "setting": "[24]", "result": 32.3, "unit": "%"},
      {"measurement": "viability, T/C", "setting": "[25]", "result": 94, "unit": "%"},
      {"measurement": "viability, T/C", "setting": "[26]", "result": 80.2, "unit": "%"},
      {"measurement": "viability, T/C", "setting": "[27]", "result": 66.3, "unit": "%"},
      {"measurement": "viability, T/C", "setting": "[28]", "result": 64.8, "unit": "%"},
      {"measurement": "viability, T/C", "setting": "[29]", "result": 55.6, "unit": "%"},
      {"measurement": "viability, T/C", "setting": "[30]", "result": 27, "unit": "%"},
      {"measurement": "viability, T/C", "setting": "[31]", "result": 88.5, "unit": "%"},
      {"measurement": "viability, T/C", "setting": "[32]", "result": 77.8, "unit": "%"},
      {"measurement": "viability, T/C", "setting": "[33]", "result": 69.3, "unit": "%"},
      {"measurement": "viability, T/C", "setting": "[34]", "result": 63.7, "unit": "%"},
      {"measurement": "viability, T/C", "setting": "[35]", "result": 59.6, "unit": "%"},
      {"measurement": "viability, T/C", "setting": "[36]", "result": 23.1, "unit": "%"}
    ]},
    {"smiles": "CCC(CC)c1cc(NC2CCC(N)C2)n2nccc2n1", "note": "(centres undefined) + CCn1c(-c2cccnc2C(C)OC)c2c3cc(ccc31)N1CCOC(CC(NC(=O)C(C(C)C)N(C)C(=O)C3(F)CCN(C(=O)C#CC(C)(C)N(C)C)CC3)C(=O)N3CCCC(N3)C(=O)OCC(C)(C)C2)C1", "values": [
      {"measurement": "IC50", "setting": "second compound 0.000949 µM", "result": 1460, "unit": "nM"},
      {"measurement": "IC50", "setting": "second compound 0.003 µM", "result": 1580, "unit": "nM"},
      {"measurement": "IC50", "setting": "second compound 0.00949 µM", "result": 1500, "unit": "nM"},
      {"measurement": "IC50", "setting": "second compound 0.03 µM", "result": 1490, "unit": "nM"},
      {"measurement": "IC50", "setting": "second compound 0.0949 µM", "result": 1310, "unit": "nM"},
      {"measurement": "IC50", "setting": "second compound 0.3 µM", "result": 1220, "unit": "nM"},
      {"measurement": "viability, T/C", "setting": "[1]", "result": 104, "unit": "%"},
      {"measurement": "viability, T/C", "setting": "[2]", "result": 86.7, "unit": "%"},
      {"measurement": "viability, T/C", "setting": "[3]", "result": 94.8, "unit": "%"},
      {"measurement": "viability, T/C", "setting": "[4]", "result": 73.8, "unit": "%"},
      {"measurement": "viability, T/C", "setting": "[5]", "result": 1.84, "unit": "%"},
      {"measurement": "viability, T/C", "setting": "[6]", "result": 0.94, "unit": "%"},
      {"measurement": "viability, T/C", "setting": "[7]", "result": 95.8, "unit": "%"},
      {"measurement": "viability, T/C", "setting": "[8]", "result": 85.5, "unit": "%"},
      {"measurement": "viability, T/C", "setting": "[9]", "result": 90.9, "unit": "%"},
      {"measurement": "viability, T/C", "setting": "[10]", "result": 81.7, "unit": "%"},
      {"measurement": "viability, T/C", "setting": "[11]", "result": 1.51, "unit": "%"},
      {"measurement": "viability, T/C", "setting": "[12]", "result": 1.01, "unit": "%"},
      {"measurement": "viability, T/C", "setting": "[13]", "result": 94.7, "unit": "%"},
      {"measurement": "viability, T/C", "setting": "[14]", "result": 82.3, "unit": "%"},
      {"measurement": "viability, T/C", "setting": "[15]", "result": 87.1, "unit": "%"},
      {"measurement": "viability, T/C", "setting": "[16]", "result": 76.7, "unit": "%"},
      {"measurement": "viability, T/C", "setting": "[17]", "result": 1.18, "unit": "%"},
      {"measurement": "viability, T/C", "setting": "[18]", "result": 0.88, "unit": "%"},
      {"measurement": "viability, T/C", "setting": "[19]", "result": 86.7, "unit": "%"},
      {"measurement": "viability, T/C", "setting": "[20]", "result": 77.1, "unit": "%"},
      {"measurement": "viability, T/C", "setting": "[21]", "result": 85.3, "unit": "%"},
      {"measurement": "viability, T/C", "setting": "[22]", "result": 75.9, "unit": "%"},
      {"measurement": "viability, T/C", "setting": "[23]", "result": 1.56, "unit": "%"},
      {"measurement": "viability, T/C", "setting": "[24]", "result": 0.52, "unit": "%"},
      {"measurement": "viability, T/C", "setting": "[25]", "result": 80.2, "unit": "%"},
      {"measurement": "viability, T/C", "setting": "[26]", "result": 83.4, "unit": "%"},
      {"measurement": "viability, T/C", "setting": "[27]", "result": 87.5, "unit": "%"},
      {"measurement": "viability, T/C", "setting": "[28]", "result": 64.8, "unit": "%"},
      {"measurement": "viability, T/C", "setting": "[29]", "result": 1.71, "unit": "%"},
      {"measurement": "viability, T/C", "setting": "[30]", "result": 0.88, "unit": "%"},
      {"measurement": "viability, T/C", "setting": "[31]", "result": 79.8, "unit": "%"},
      {"measurement": "viability, T/C", "setting": "[32]", "result": 73.5, "unit": "%"},
      {"measurement": "viability, T/C", "setting": "[33]", "result": 77.9, "unit": "%"},
      {"measurement": "viability, T/C", "setting": "[34]", "result": 60, "unit": "%"},
      {"measurement": "viability, T/C", "setting": "[35]", "result": 1.44, "unit": "%"},
      {"measurement": "viability, T/C", "setting": "[36]", "result": 0.36, "unit": "%"}
    ]}
  ]
}
